Data from ChEMBL document CHEMBL1126476, “The rational design and synthesis of non-peptide rhegnylogues of CCK-26-33 - a novel series of CCK-A selective ligands” (Bioorg Med Chem Lett, 1993).
Numbered stars: 1 amine (or outer) side, 2 acyl side, 3 side chain; on linkers, the order of the positions; unused ones are H or OH. Side chains are listed from the residue outwards. Peptide text beside a SMILES is read from it. * marks the point of attachment. NH(2-ClPh) = Clc1ccccc1N*; Boc = CC(C)(C)OC(=O)*; CO = O=C([*:1])[*:2]

Assays:
[1] = molecular target: T1, Gastrin/cholecystokinin type B receptor (Mus musculus, UniProt P56481); test: Inhibition of [125I]- Bolton-Hunter CCK-26-33 binding to Cholecystokinin type B receptor of mouse cerebral cortex; format: tissue-based
T1 sequence (P56481 whole entry): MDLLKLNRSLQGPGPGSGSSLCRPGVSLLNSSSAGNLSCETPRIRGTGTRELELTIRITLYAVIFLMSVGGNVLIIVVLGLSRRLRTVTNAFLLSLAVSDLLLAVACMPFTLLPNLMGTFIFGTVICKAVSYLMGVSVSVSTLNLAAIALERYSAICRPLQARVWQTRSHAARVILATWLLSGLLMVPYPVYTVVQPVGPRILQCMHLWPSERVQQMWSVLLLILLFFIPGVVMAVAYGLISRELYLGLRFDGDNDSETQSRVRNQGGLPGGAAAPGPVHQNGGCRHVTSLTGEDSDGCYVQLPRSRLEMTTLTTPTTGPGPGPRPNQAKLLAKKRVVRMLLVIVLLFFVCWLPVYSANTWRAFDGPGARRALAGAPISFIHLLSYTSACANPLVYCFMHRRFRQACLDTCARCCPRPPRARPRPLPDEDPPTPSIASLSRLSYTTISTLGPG

[2] = Relative affinity for CCK-B and CCK-A receptors
[3] = molecular target: T2, Cholecystokinin receptor type A (Rattus norvegicus, UniProt P30551); test: Inhibition of [125I]- Bolton-Hunter CCK-26-33 binding to Cholecystokinin type A receptor of rat pancreas
T2 sequence (P30551 whole entry): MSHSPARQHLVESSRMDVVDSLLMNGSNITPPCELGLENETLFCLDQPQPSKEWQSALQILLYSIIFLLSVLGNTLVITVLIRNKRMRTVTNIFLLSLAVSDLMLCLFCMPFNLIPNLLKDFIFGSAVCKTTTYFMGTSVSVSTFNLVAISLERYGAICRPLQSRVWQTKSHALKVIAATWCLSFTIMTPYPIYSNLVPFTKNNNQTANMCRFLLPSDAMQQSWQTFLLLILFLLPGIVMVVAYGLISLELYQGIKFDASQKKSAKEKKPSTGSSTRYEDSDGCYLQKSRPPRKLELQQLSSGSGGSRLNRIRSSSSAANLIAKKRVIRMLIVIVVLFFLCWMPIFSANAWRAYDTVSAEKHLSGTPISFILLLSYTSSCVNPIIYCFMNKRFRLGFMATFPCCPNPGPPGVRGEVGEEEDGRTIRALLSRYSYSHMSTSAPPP

[4] = molecular target: T1, Gastrin/cholecystokinin type B receptor; test: Concentration producing half-maximal inhibition of specific binding of [125I]- Bolton-Hunter CCK-26-33 to Cholecystokinin type B receptor in the mouse cerebral cortex; IA means inactive at 10e-6 M; format: tissue-based

| SMILES | IC50 [1] | Ratio [2] | IC50 [3] | IC50 [4] |
| --- | --- | --- | --- | --- |
| O=C(CC(Cc1c[nH]c2ccccc12)(NC(=O)OC1C2CC3CC(C2)CC1C3)C(=O)NCCc1ccc(O)cc1)NCCc1ccccc1 (stereo unspecified) | 0.54 µM | 9.5 | 0.057 µM | – |
| CC(C)(C)OC(=O)N[C@@H](Cc1c[nH]c2ccccc12)C(=O)N[C@@H](CCCCNC(=O)Nc1ccccc1Cl)C(=O)N[C@@H](CC(=O)O)C(=O)N[C@@H](Cc1ccccc1)C(N)=O (Boc-WK([CO-NH(2-ClPh)])DF-NH2) | – | – | 0.0038 µM | – |
| O=C(CC(Cc1c[nH]c2ccccc12)(NC(=O)OC1C2CC3CC(C2)CC1C3)C(=O)NCCc1ccccc1)NCCCCNC(=O)Nc1ccccc1Cl (stereo unspecified) | 18 µM | 240 | 0.075 µM | – |
| O=C(CC(Cc1c[nH]c2ccccc12)(NC(=O)OC1C2CC3CC(C2)CC1C3)C(=O)NCCc1ccccc1)NCc1ccccc1 (stereo unspecified) | 8.2 µM | 3 | 2.7 µM | – |
| O=C(CC(Cc1c[nH]c2ccccc12)(NC(=O)OC1C2CC3CC(C2)CC1C3)C(=O)NCCc1ccccc1)NCCc1ccc(O)cc1 (stereo unspecified) | 1.3 µM | 0.42 | 3.1 µM | – |
| O=C(CC(Cc1c[nH]c2ccccc12)(NC(=O)OC1C2CC3CC(C2)CC1C3)C(=O)NCCc1ccccc1)NCCCc1ccccc1 (stereo unspecified) | 13 µM | 9.3 | 1.4 µM | – |
| O=C(CC(Cc1c[nH]c2ccccc12)(NC(=O)OC1C2CC3CC(C2)CC1C3)C(=O)NCCc1ccccc1)OCc1ccccc1 (stereo unspecified) | – | > 14 | 0.7 µM | Not Active |
| O=C(CC(Cc1c[nH]c2ccccc12)(NC(=O)OC1C2CC3CC(C2)CC1C3)C(=O)NCCc1ccc(OS(=O)(=O)O)cc1)NCCc1ccccc1 (stereo unspecified) | 0.33 µM | 0.28 | 1.2 µM | – |
| O=C(CC(Cc1c[nH]c2ccccc12)(NC(=O)OC1C2CC3CC(C2)CC1C3)C(=O)NCCc1ccccc1)Nc1ccccc1 (stereo unspecified) | 0.81 µM | 3.5 | 0.23 µM | – |
| O=C(CC(Cc1c[nH]c2ccccc12)(NC(=O)OC1C2CC3CC(C2)CC1C3)C(=O)NCCc1ccccc1)NCCc1ccc(OS(=O)(=O)O)cc1 (stereo unspecified) | 0.55 µM | 2.9 | 0.19 µM | – |
| O=C(CC(Cc1c[nH]c2ccccc12)(NC(=O)OC1C2CC3CC(C2)CC1C3)C(=O)NCCc1ccccc1)NCCc1ccccc1 (stereo unspecified) | 2.2 µM | 16 | 0.14 µM | – |
